For orientation: IC50 means the concentration needed to halve the response being measured.

Activity calls are given as the source filed them. No cut-off for these calls is given here.

The source of these data is ChEMBL document CHEMBL1143283, “Preliminary biological evaluations of new thalidomide analogues for multiple sclerosis application” (Bioorg Med Chem Lett, 2009).

The test system of test [1] is Mus musculus. Put plainly: Antiangiogenesis activity against MOG peptide, pertussis toxin, Mycobacterium tuberculosis-induced experimental allergic encephalomyelitis C57BL/6J mouse model assessed as inhibition of multiple sclerosis at dose equivalent to 100 mg/kg of thalidomide up to 15 days. In kind it is functional, organism-based. On the set-up: dose 100 mg/kg.
Test [2] can be described thus: Antiproliferative activity against human EAhy926 cells. In kind it is functional, cell-based. To be noted: EA.hy 926.
Test [3] deals with Mus musculus. Put plainly: Antiangiogenesis activity against MOG peptide, pertussis toxin, Mycobacterium tuberculosis-induced experimental allergic encephalomyelitis C57BL/6J mouse model assessed as inhibition of multiple sclerosis at 100 mg/kg up to 15 days. Format: functional, organism-based. On the set-up: dose 100 mg/kg.
For test [4], the system named is EA.hy 926. The experiment in a line: Antiproliferative activity against human EAhy926 cells at 10 uM. In kind it is functional, cell-based.
In test [5] the test system is EA.hy 926. Put plainly: Antiproliferative activity against human EAhy926 cells at 12 uM. Format: functional, cell-based.

`Nc1ccc2c(c1)C(=O)N(C1CCC(=O)NC1=O)C2=O` (stereo not drawn): the result in test [1] was inactive. The molecule `NCCNc1cccc2c1C(=O)N(C1CCC(=O)NC1=O)C2=O` (stereo not drawn) returned an IC50 in test [2] of 150 µM. Consider `O=C1CCC(N2C(=O)c3ccc(NCCCCC(NC(=O)[C@H](O)[C@H](O)[C@H](O[C@@H]4O[C@H](CO)[C@H](O)[C@H](O)[C@H]4O)[C@H](O)CO)C(=O)NCCC(F)(F)C(F)(F)C(F)(F)C(F)(F)C(F)(F)C(F)(F)C(F)(F)C(F)(F)F)cc3C2=O)C(=O)N1` (stereo partly drawn), for which the result in test [1] was inactive. For `O=C1CCC(N2C(=O)c3ccc(C(=O)O)cc3C2=O)C(=O)N1` (stereo not drawn), the result in test [1] was Active.

In the case of `O=C1CCC(N2C(=O)c3ccc(NCCCNC(=O)C(O)C(O)C(O[C@@H]4O[C@H](CO)[C@H](O)[C@H](O)[C@H]4O)C(O)CO)cc3C2=O)C(=O)N1` (stereo partly drawn), the result in test [1] was Active. `O=C1CCC(N2C(=O)c3ccccc3C2=O)C(=O)N1` (stereo not drawn) [THALIDOMIDE]: in test [3], the outcome was inactive. In test [2], the IC50 is 200 µM. As for `NCCNc1ccc2c(c1)C(=O)N(C1CCC(=O)NC1=O)C2=O` (stereo not drawn), the outcome in test [4], in test [1] and in test [5] was inactive. As to `O=C1CCC(N2C(=O)c3ccc([N+](=O)[O-])cc3C2=O)C(=O)N1` (stereo not drawn), the result in test [4] and in test [5] was inactive. For `CC(C)(C)OC(=O)NCCNc1ccc2c(c1)C(=O)N(C1CCC(=O)NC1=O)C2=O` (stereo not drawn), the half-maximal inhibitory concentration (IC50) in test [2] amounted to 41 µM.
